Measurements as given in patent publication US9055743B2, “Alpha, beta-unsaturated imines” (BAYER INTELLECTUAL PROPERTY GMBH, priority 2010, dated 2015).

Key:
Assay type in all cases: in vivo
[1] = test system: cat fleas (Ctenocephalides felis, fully sensitive laboratory strain); assay: Contact test against fleas in-vitro (CTECFE contact); settings: for activity against cat fleas: 500 g/ha, after 48 h
Description: Contact Test Against Fleas In-Vitro (CTECFE Contact)
An amount of 0.9 mg of active compound is weighed out, and 1 ml of acetone is added.
Of this acetone solution, either […] are transferred directly into roll-necked test tubes or an aliquot is diluted with 4 parts of acetone 1:5. For its part, 250 μl of this dilution are pipetted into roll-necked test tubes, or the dilution is diluted further, etc., until the desired number of dilution steps is reached.
The roll-necked test tubes containing the solution of the active compound in acetone are immediately coated in a fume cupboard by 2 h of swing rotation at 30 rpm. After evaporation of the solvent, the active compound contained in the acetone gives, at the highest concentration tested, an active compound content of 500 g/ha (or 500 μg/dm^2) on the surface of the test tube.
10-20 Adult cat fleas (Ctenocephalides felis, fully sensitive laboratory strain) anesthetized with CO2 are transferred into the test tubes prepared in this manner, and the test tubes are closed with a plastic roll-necked lid provided with fine holes.
The test tubes are stored vertically at room temperature and humidity for 24 or 48 h. After 24 and 48 h, the activity of the active compound applied is determined by comparison with an acetone-treated control. Here, an observed normal activity for all fleas corresponds to 0% activity, a strongly restricted or uncoordinated (knock-down) movement or death of all fleas corresponds to 100% activity.

[2] = test system: larvae of the mustard beetle (Phaedon cochleariae); assay: Phaedon test (PHAECO spray treatment); settings: for activity (beetle larvae killed) / pest or weed control at 500 g/ha: 500 g/ha, spray, after 7 days; for pest or weed control at 500 g/ha: Phaedon cochleariae, 168 h, read-out: activity (beetle larvae killed)
Description: Phaedon Test ([…] Spray Treatment) Solvents: 78.0 parts by weight of acetone • • 1.5 parts by weight of dimethylformamide Emulsifier: 0.5 part by weight of alkylaryl polyglycol ether To produce a suitable preparation of active compound, 1 part by weight of active compound is mixed with the stated amounts of solvents and emulsifiers, and the concentrate is diluted with emulsifier-containing water to the desired concentration. Discs of Chinese cabbage leaves (Brassica pekinensis) are sprayed with an active compound preparation of the desired concentration and, after drying, populated with larvae of the mustard beetle (Phaedon cochleariae).

[3] = test system: caterpillars of the army worm (Spodoptera frugiperda); assay: Spodoptera frugiperda test (SPODFR spray treatment); settings: for activity (caterpillars killed) / pest or weed control at 500 g/ha: 500 g/ha, spray, after 7 days; for pest or weed control at 500 g/ha: Spodoptera frugiperda, 168 h, read-out: activity (caterpillars killed)
Description: Spodoptera frugiperda Test (SPODFR Spray Treatment) Solvents: 78.0 parts by weight of acetone • • 1.5 parts by weight of dimethylformamide Emulsifier: 0.5 part by weight of alkylaryl polyglycol ether
(§1) To produce a suitable preparation of active compound, 1 part by weight of active compound is mixed with the stated amounts of solvents and emulsifier, and the concentrate is diluted with emulsifier-containing water to the desired concentration.
Discs of maize leaves (Zea mays) are sprayed with an active compound preparation of the desired concentration and, after drying, populated with caterpillars of the army worm (Spodoptera frugiperda) besetzt.
After 7 days, the activity in % is determined. 100% means that all caterpillars have been killed; 0% means that none of the caterpillars have been killed.

[4] = test system: green peach aphid (Myzus persicae); assay: Myzus test (MYZUPE spray treatment); settings: for activity (aphids killed) / pest or weed control at 500 g/ha: 500 g/ha, spray, after 6 days; for pest or weed control at 500 g/ha: Myzus persicae, 144 h, read-out: activity (aphids killed)
Description: Myzus Test (MYZUPE Spray Treatment) Solvents: 78 parts by weight of acetone • • 1.5 parts by weight of dimethylformamide Emulsifier: 0.5 part by weight of alkylaryl polyglycol ether
as §1
Discs of Chinese cabbage leaves (Brassica pekinensis) which are infested by all stages of the green peach aphid (Myzus persicae) are sprayed with an active compound preparation of the desired concentration.
After 6 days, the activity in % is determined. 100% means that all aphids have been killed; 0% means that none of the aphids have been killed.

[5] = test system: greenhouse red spider mite (Tetranychus urticae); assay: Tetranychus test; OP-resistant (TETRUR spray treatment); settings: for activity (spider mites killed) / pest or weed control at 500 g/ha: 500 g/ha, spray, after 6 days; for pest or weed control at 500 g/ha: Tetranychus urticae, 144 h, read-out: activity (spider mites killed)
Description: Tetranychus Test; OP-Resistant (TETRUR Spray Treatment) Solvents: 78.0 parts by weight of acetone • • 1.5 parts by weight of dimethylformamide Emulsifier: 0.5 part by weight of alkylaryl polyglycol ether
as §1
Discs of bean leaves (Phaseolus vulgaris) infested by all stages of the greenhouse red spider mite (Tetranychus urticae) are sprayed with an active compound preparation of the desired concentration.
After 6 days, the activity in % is determined. 100% means that all spider mites have been killed; 0% means that none of the spider mites have been killed.

[6] = test system: Anopheles gambiae (homocygus kdr); assay: Anopheles test (ANPHGB surface treatment); settings: for knock-down activity: 100 mg/m^2, two hours after contact, exposition 30 minutes; for mortality at 100 mg/m2: Anopheles gambiae, read-out: activity (mortality in %)
Description: Anopheles Test (ANPHGB Surface Treatment) Solvent: Acetone
(§2) To produce a suitable preparation of active compound, the active compound is dissolved in acetone (2 mg/ml). The active compound preparation is pipetted onto a glazed tile and, after drying, adult mosquitoes of the species Anopheles gambiae (homocygus kdr) are placed onto the treated tile. The exposition time is 30 minutes.
(§3) Two hours after contact to the treated surface, the knock-down proportion of the test animals in % is determined.
24 hours after contact to the treated surface, the mortality in % is determined. Here, 100% means that all mosquitoes have been killed; 0% means that none of the mosquitoes has been killed.

Aedes aegypti = assay: Aedes test (AEDSAE surface treatment); settings: for knock-down activity: 100 mg/m^2, two hours after contact, exposition 30 minutes
Description: Aedes Test (AEDSAE Surface Treatment)
as §2, with “Aedes aegypti” for “Anopheles gambiae (homocygus kdr)”
as §3
24 hours after contact to the treated surface, the mortality in % is determined Here, 100% means that all mosquitoes have been killed; 0% means that none of the mosquitoes has been killed.

Boophilus microplus = Boophilus microplus test (BOOPMI injection); settings: 20 μg/animal, injection into the abdomen, after 7 days
Description: Boophilus microplus Test (BOOPMI Injection)
(§4) Solvent: Dimethyl Sulphoxide
To produce a suitable preparation of active compound, 10 mg of active compound are mixed with 0.5 ml of solvent and the concentrate is diluted with solvent to the desired concentration. The solution of active compound is injected into the abdomen (Boophilus microplus), and the animals are transferred into dishes and kept in a climatized room. The activity is assessed by […] of fertile eggs.
After 7 days, the effect in % is determined 100% means that none of the ticks has laid any fertile eggs.

Ctenocephalides felis = Ctenocephalides felis oral test (CTECFE); settings: 100 ppm in citrated cattle blood, after two days
Description: Ctenocephalides Felis Oral Test (CTECFE)
Solvent: 1 Part by Weight of Dimethyl Sulphoxide
To produce a suitable preparation of active compound, 10 mg of active compound are mixed with 0.5 ml of dimethyl sulphoxide. Part of the concentrate is diluted with citrated cattle blood, and the desired concentration is prepared.
About 20 unfed adult fleas (Ctenocephalides felis) are placed into a chamber which is closed at the top and bottom with gauze. A metal cylinder whose bottom end is closed with parafilm is placed onto the chamber. The cylinder contains the blood/active compound preparation, which can be taken up by the fleas through the parafilm membrane. After two days, the kill in % is determined 100% means that all fleas have been killed; 0% means that none of the fleas have been killed.

Lucilia cuprina larvae = assay: Lucilia cuprina test (LUCICU); settings: 100 ppm, after 2 days
Description: Lucilia cuprina Test (LUCICU)
as §4
To produce a suitable preparation of active compound, 10 mg of active compound are mixed with 0.5 ml of dimethyl sulphoxide and the concentrate is diluted with water to the desired concentration. Vessels containing horsemeat treated with the active compound preparation of the desired concentration are populated with about 20 Lucilia cuprina larvae.
After 2 days, the kill in % is determined. 100% means that all larvae have been killed; 0% means that none of the larvae have been killed.

[7] = active compound concentration 500 g/ha
[8] = active compound concentration 100 g/ha

| Structure (SMILES) | activity against cat fleas [1] | activity (beetle larvae killed) [2] | activity (caterpillars killed) [3] | activity (aphids killed) [4] | activity (spider mites killed) [5] | knock-down activity [6] | knock-down activity (Aedes aegypti) | activity (100% = none of the ticks has laid any fertile eggs) (Boophilus microplus) | activity (kill in %) (Ctenocephalides felis) | activity (kill in %) (Lucilia cuprina larvae) | other results |
| --- | --- | --- | --- | --- | --- | --- | --- | --- | --- | --- | --- |
| Cc1ccc(N=C2C(=CSc3ccccc3)COc3ccccc32)cc1 [Example 1-7] | 100% | 100% | 100% | 100% | 100% | 100% | 85% | – | – | – | – |
| Cc1ccc(N=C2C(=CSc3ccccc3)C(c3ccccc3)c3ccccc32)cc1 (mixture of isomers) [Example 1-20] | 100% | 100% | 100% | 100% | 100% | – | – | 100% | – | – | – |
| Cc1ccc(N=C2C(=CSc3ccccc3Cl)CCc3ccccc32)cc1 [Example 1-69] | 100% | 100% | 100% | 90% | 100% | 90% | – | 100% | 100% | 100% | – |
| Fc1ccc(N=C2/C(=C/Sc3ccccc3)CCc3ccccc32)cc1 [Example 1-3, 4-Fluoro-N-[(2E)-2-[(phenylsulphanyl)methylene]-3,4-dihydronaphthalen-1(2H)-ylidene]aniline] | 100% | – | – | – | – | 80% | – | 100% | 90% | 100% | pest or weed control at 500 g/ha [2]: 100%; pest or weed control at 500 g/ha [3]: 100%; pest or weed control at 500 g/ha [4]: 100%; pest or weed control at 500 g/ha [5]: 100%; mortality at 100 mg/m2 [6]: 100% |
| Cc1ccc(N=C2C(=CSc3ccc(C(F)(F)F)cc3)CCc3ccccc32)cc1 [Example 1-82] | 100% | 100% | 100% | 100% | 100% | 100% | – | 100% | 100% | 100% | – |
| CCc1ccc2c(c1)CCC(=CSc1ccc(F)cc1)C2=Nc1ccc(C)cc1 [Example 1-84] | 100% | 100% | 100% | 100% | 100% | 100% | 100% | – | – | – | – |
| Cc1ccc(N=C2C(=CSc3ccc(F)cc3)C(C)c3cc(F)ccc32)cc1C (mixture of isomers) [Example 1-63] | 100% | 100% | 100% | 100% | 100% | – | – | 100% | 90% | – | – |
| CCc1ccc(N=C2C(=CSc3ccc(F)cc3)CCc3ccccc32)cc1 [Example 1-39] | 100% | 100% | 100% | 100% | 80% | 100% | 100% | – | – | – | – |
| Cc1ccc(N=C2C(=CSc3ccc(F)cc3)C(C)(C)c3ccccc32)cc1 [Example 1-21] | 100% | – | – | – | – | – | – | – | – | – | Kill rate in % after 2 days ([1]; active compound concentration 0.032 g/ha): 100%; Kill rate in % after 2 days ([1]; active compound concentration 0.16 g/ha): 100%; pest or weed control at 500 g/ha [2]: 100%; Kill rate in % after 7 days [2, 7]: 100%; pest or weed control at 500 g/ha [3]: 100%; Kill rate in % after 7 days [3, 8]: 83%; pest or weed control at 500 g/ha [4]: 100%; Kill rate in % after 6 days [4, 8]: 100%; Kill rate in % after 6 days [4, 7]: 100%; pest or weed control at 500 g/ha [5]: 100%; Kill rate in % after 6 days [5, 8]: 100%; Kill rate in % after 6 days [5, 7]: 100%; mortality at 100 mg/m2 [6]: 100%; Kill rate in % after 24 hours ([6]; active compound concentration 8 g/ha): 100%; mortality at 100 mg/m2 (Aedes aegypti; Aedes aegypti, read-out: activity (mortality in %)): 100% |
| COc1ccc2c(c1)CCC(=CSc1ccc(F)cc1)C2=Nc1ccc(C)cc1 [Example 1-17] | 100% | 100% | 100% | 100% | 100% | 95% | 100% | – | – | – | – |
| CC1C(=CSc2ccccc2)C(=Nc2ccc(F)cc2)c2ccccc21 (mixture of isomers) [Example 1-6] | 100% | 100% | 100% | 100% | 100% | – | – | 100% | 100% | 100% | – |
